The structures appear in SMILES notation. Entries after “also recorded” stand apart in the source; their conditions may differ.

The values that follow come from patent publication US4149007A, “C14 Phenyl-substituted derivatives of prostaglandin analogues” (Miles Laboratories, Inc., priority 1977, dated 1979).

For one experiment, the system named is rat uterus. Nature of the experiment: Effects on the rat uterus in vitro. Type of experiment: cell-based. The note with it: dose producing response 50% that of carbachol. The protocol: (B) effect on the rat uterus in vitro;
The uterine stimulant effect of test compounds was determined in segments of uterus obtained from rats (140-160 g) pretreated subcutaneously with 1 mg/kg of diethylstilbesterol 18 hours before the experiment. The tissues were placed in 10 ml chambers filled with de-Jalon solution at 29° C., were aerated and bubbled with 95% O2 and 5% CO2, and were prepared for isometric recording with force displacement transducers. Preparations were stretched to an initial tension of 1 g and were left undisturbed for 30 minutes. Carbachol (1 mcg/ml) was then added to the bath and a response was recorded. After a ten minute interval the carbachol procedure was repeated. Responses to increasing concentrations of a test compound (0.001 to 10 mcg/ml with one log intervals) were then recorded every 10 minutes. Preparations were washed four times after each response. All doses of compounds were administered in a 0.1 ml volume. Because it has been observed that the magnitude of the second response to carbachol (approximately 10% greater than the first) is close to the maximal response of the tissue, such value was taken as a measure of the sensitivity of a particular segment. Responses to each concentration of the test compound were expressed in terms of percentage of the second response to carbachol and the ED50 (dose producing a response 50% that of carbachol) was calculated graphically.
Activity was scored according to the following scale: […]

Experiment [1] relates to guinea pig ileum. Briefly: Antagonism of the effects of PGF2α on the guinea pig ileum in vitro. In kind it is cell-based. The note with it: listed as TR 4412. As for the experimental part: (§1) The degree and specificity of antagonism of test compounds to the smooth muscle stimulant effects of prostaglandins were assessed in segments of terminal guinea pig ileum. Preparations were placed in tissue chambers filled with Ringer-Tyrode solution at 37° C., bubbled with a mixture of 95% O2 and 5% CO2, and arranged for isometric recording with force displacement transducers. The segments were stretched to an initial tension of 1 g, and responses to a test concentration of acetylcholine (0.1 mcg/ml) were obtained every 5 minutes until two similar responses were observed (usually after four administrations). […] Any direct contractile effect of the test compound was recorded and evaluated in terms of mean values in grams of tension developed at each concentration. Responses to the different agonists observed after incubation with the test compound were expressed as percent of control responses. All drugs were administered in a volume of 0.1 ml.
(§2) Antagonism to prostaglandins was scored independently for PGE1 and PGF2α according to the following criteria: […]

A further experiment has as its system anesthetized cat. Nature of the experiment: Effects on blood pressure and heart rate in the anesthetized cat. Type of experiment: in vivo. The note with it: i.v. 0.01 to 10.0 mcg/kg, scored on hypotension only. As for the experimental part: (G) effect on blood pressure and heart rate in the anesthetized cat;
The acute effects of test compounds on blood pressure and heart rate were determined in cats of either sex anesthetized with a mixture of pentobarbital sodium (35 mg/kg, i.v.) and barbital sodium (100 mg/kg, i.v.). Cannulas were placed in the trachea to allow adequate spontaneous ventilation, in a femoral artery for blood pressure recording with a strain gage transducer, and in a saphenous vein for drug administration. Heart rate was recorded by means of a cardiotachometer driven by the R wave of the electrocardiogram. After a period of 10 minutes of stable recordings of blood pressure and heart rate, the test compound was administered intravenously at doses increasing from 0.01 to 10.0 mcg/kg, spaced one log and injected at 10 minute intervals. All doses were injected in a volume of 0.1 ml/kg. Modifications of blood pressure and heart rate induced by the test compound were expressed both in absolute units (mmHg and beats/minute) and as percent of values recorded immediately before administration of each dose. […]
Activity of compounds in this test was judged only on the basis of the degree of hypotension observed. Thus, the ED50 mmHg (dose decreasing blood pressure by 50 mmHg) was calculated graphically, and the compound scored according to the following scale: […]

Another experiment deals with hypertensive rat. Nature of the experiment: Effects on blood pressure in the hypertensive rat. On the set-up: key: 0: Not significant at any time interval; 1: Significant at one time interval; 2: Significant at two time intervals. The note with it: 1 mg/kg intraperitoneal; 2, 4, 6 and 9 hours. In kind it is in vivo. As for the experimental part: (I) effect on systolic blood pressure in the hypertensive rat
The acute anithypertensive activity of test compounds was determined in rats made hypertensive by the procedure of Grollman (Proc. Soc. Exper Biol. Med., 57: 102 [1944]). Female rats weighing between 60 and 100 g were anesthetized with ether, the right kidney approached through a flank retroperitoneal incision, decapsulated and tied with a figure-of-eight-ligature. The animals were left to recover and two weeks later were again anesthetized and the contralateral kidney removed. […]
Blood pressure was measured in the tail with an inflatable occluding cuff placed at the base of the extremity and a pulse detector located distally. The cuff was inflated to approximately 300 mmHg and was slowly deflated until pulsations appeared, indicating the level of systolic pressure; diastolic pressure was not recorded by this procedure. […] In all cases, three pressure readings were obtained in succession and mean values were calculated thereof.
Experiments were carried out in groups of five hypertensive rats in which systolic pressure was determined immediately before and 2, 4, 6 and 9 hours after intraperiotoneal administration of the test compound at a dose of 1 mg/kg. Drugs were diluted from stock solutions with phosphate buffer (Lee et al., Prostaglandins, 3: 29 [1973]), so as to inject this quantity in a volume of 1 ml/kg. […]

The test system of experiment [2] is guinea pig ileum. Nature of the experiment: Antagonism of the effects of PGE1 on the guinea pig ileum in vitro. The note with it: listed as TR 4412. Type of experiment: cell-based. As for the experimental part:
as §1, §2

For a further experiment, the system named is anesthetized dog. Nature of the experiment: Effects on femoral blood flow in the anesthetized dog. In kind it is in vivo. The note with it: intraarterial 0.001 to 10 mcg. As for the experimental part:
(H) effect on femoral blood flow in the anesthetized dog; and
The peripheral vasodilator or constrictor effects of test compounds were determined in mongrel dogs of either sex, weighing between 10 and 20 kg, anesthetized intravenously with 35 mg/kg of pentobarbital sodium. An external iliac artery was dissected immediately above the femoral arch for a length of approximately 5 cm, and a previously calibarated, non-cannulating electromagnetic-flowmeter sensor with a lumen between 2.5 and 3.5 mm was placed snugly around the vessel. Cannulas were placed in a branch of the artery arising distally to the location of the flowmeter sensor for intraarterial drug administrations, in the contralateral femoral artery for systemic blood pressure recording, and in the trachea for artificial respiration with room air. Femoral blood flow and systemic blood pressure were continuously recorded with an electromagnetic flowmeter and pressure transducer, respectively.
After an adequate control period, test compounds were injected intraarterially at one log-spaced doses ranging from 0.001 to 10 mcg, in a volume of 0.5 ml and at 5 to 10 minute intervals. […] The dose changing blood flow by 100 ml/min (ED100 ml/min) was calculated graphically and was used for scoring activity as follows: […]

The next experiment relates to guinea pig trachea. Briefly: Effects on the guinea pig trachea in vitro. In kind it is cell-based. The note with it: 0.01-10.0 mcg/ml, relative to PGE1 0.1 mcg/ml. The protocol: (C) effect on the guinea pig trachea in vitro;
A male guinea pig weighing 200-500 g was killed by a blow on the head. A 20 mm length of the trachea was dissected from the animal, transferred to a petri dish containing Krebs' solution (aerated with 95% O2 and 5% CO2 at 37° C.), and cut longitudinally opposite the tracheal muscle. The tissue was then cut transversely three quarters of the distance across, a second cut in the opposite direction (again three quarters of the distance across the tissue) was made and the procedure was continued for the whole tissue. The ends of the trachea were pulled to form a zig-zig shaped strip. The tracheal strip used in the experiment was approximately 30 mm when extended under 0.25-0.5 g load in the tissue bath. Cotton thread was tied to one end of the tissue, and linen thread to the other. It was attached via the linen thread to a glass hook in a 5 ml isolated tissue bath containing Krebs' solution (37° C., aerated with a mixture of 95% O2 and 5% CO2). […]
A test compound was then added to the same two strips at bath concentrations of 0.01, 0.1, 1.0, and 10.0 mcg/ml and the effects of the compound were recorded. […] The mean of the effects of the test compound on the two strips was then calculated for each concentration, and, based on the resulting values, an activity value was assigned as follows: […]

Turning to `CCCCC[C@H](O)/C(=C/[C@H]1[C@H](O)CC(=O)[C@@H]1CCCCCCC(=O)OC)c1ccccc1` [Example 1, Methyl 14-Phenyl-11α,15S-dihydroxy-9-oxoprost-13E-en-1-oate], in the experiment on rat uterus, the “Rat Uterus: activity value (ED50)” value was 0 (>10). Also, the “antagonism to the smooth muscle stimulant effects of PGF2α (in words)” value with guinea pig ileum [1] was “exhibited antagonism to the smooth muscle stimulant effects of PGE1 and PGF2α; also recorded: demonstrated a specificity of antagonism to the smooth muscle stimulant effects of PGE1 and PGF2α”. Besides, the “Feline Blood Pressure, Heart Rate: activity value (ED50 mmHg)” value in the experiment with anesthetized cat is recorded as 0 (>10.0). Further, the “Blood Pressure Hypertensive Rat: activity value” in the experiment with hypertensive rat is reported as 0. For the same compound, in the experiment with guinea pig ileum [2], the “antagonism to the smooth muscle stimulant effects of PGE1 (in words)” value was “exhibited antagonism to the smooth muscle stimulant effects of PGE1 and PGF2α; also recorded: demonstrated a specificity of antagonism to the smooth muscle stimulant effects of PGE1 and PGF2α”. In the experiment on anesthetized dog, the “Femoral Blood Flow: activity value (ED100 ml/min)” value is recorded as 0 (>10.0).
`CCCCC[C@@H](O)/C(=C/[C@H]1[C@H](O)CC(=O)[C@@H]1C/C=C\CCCC(=O)OCC)c1ccccc1` [Example 7A, Ethyl 14-Phenyl-11α,15R-dihydroxy-9-oxoprosta-5Z,13E-dien-1-oate]: the “Guinea Pig Trachea: activity value” in the experiment with guinea pig trachea was determined as 1. The “Rat Uterus: activity value (ED50)” value with rat uterus is recorded as 0 (>10).
